Like-named read-outs stand apart in the source and are kept apart here. Where no end group is shown, it is not given here.
Legend:
Format in all cases: cell-based
Staphylococcus aureus = settings: 18 h
Experimental: (§1) Bacteria (2×10E6 CFU/ml) were suspended in MHB+0.9% NaCl and were mixed 1:1 (vol/vol) with peptides dissolved in the same medium in various concentrations (final conc. 0-10 μM) and added to Bioscreen C analyzer plates (Oy Growth Curves Ab Ltd., Helsinki, Finland) and incubated for 18 h at 37° C. while shaking (200 rpm) in a Bioscreen C analyzer (Oy Growth Curves Ab Ltd). The OD (600 nm) was measured every 15 min. Minimal Inhibitory Concentrations (MIC values) were assessed for each peptide.

Pseudomonas aeruginosa = settings: 18 h
Experimental: as §1

[1] = test system: primary human nasal epithelial cells; experiment: Toxicity measurement (WST-1 conversion); set-up: Toxicity: key to the marks not given beside the values
Experimental: The cytotoxic effect of all peptides was determined as previously described (2) using primary human nasal epithelial cells, obtained by nasal brushing of healthy individuals.
Cells were grown to confluence in 96-well plates in Bronchial Epithelial Cell Growth Medium (BEPC, Lonza) at 37° C. and 5% CO2. Peptides were diluted in the same medium to a final concentration of 5 μM and applied to the washed (PBS, twice) cells and incubated for 3 hours or 24 hours at 37° C. After incubation, the medium was removed, cells were washed twice (PBS) and fresh BEPC containing 10% (v/v) cell proliferation reagent WST-1 (Roche) was added to each well.
Conversion of WST-1 is indicative for cell viability and reduced conversion by cells is a measure for cytotoxic effects exerted by peptides. After incubation for 30 minutes at 37° C. the absorbance of each well was measured at 450 nm and 650 nm (reference wavelength). Controls included cells exposed to peptide-free medium (set to 100% WST-1 conversion) and wells without cells (background). Results are based upon 5 individual experiments and defined as follows: “0”, no toxicity; “+”, weakly toxic; “++”, moderately toxic; “+++”, toxic; “++++”, very toxic.

Compound	Bioscreen MIC values Staphylococcus aureus (Staphylococcus aureus) [µM]	Bioscreen MIC values Pseudomonas aeruginosa (Pseudomonas aeruginosa) [µM]	Toxicity ([1]; peptide 5 μM, 3 hours or 24 hours, WST-1 conversion)	toxicity, in words ([1]; primary human nasal epithelial cells)	toxicity, in words [1]
APKAMRRWVQRWIRRWRPKVLQKNNYL-NH2 [SEQ ID NO: 21]	>10	2.5	–	–	–
APKAMRRWVQRWIRRWRPRLQKKGI-NH2 [SEQ ID NO: 19]	>10	5	–	–	–
CC[C@H](C)[C@H](NC(=O)[C@H](CCCCN)NC(=O)[C@H](CCC(=O)O)NC(=O)[C@H](CCCCN)NC(=O)[C@H](CO)NC(=O)[C@H](CCCCN)NC(=O)[C@H](CCCNC(=N)N)NC(=O)[C@H](Cc1ccccc1)NC(=O)[C@H](Cc1ccccc1)NC(=O)[C@H](CC(=O)O)NC(=O)CNC(=O)[C@H](CC(C)C)NC(=O)[C@@H](N)CC(C)C)C(=O)NCC(=O)N[C@@H](CCCCN)C(=O)N[C@@H](CCC(=O)O)C(=O)N[C@@H](Cc1ccccc1)C(=O)N[C@@H](CCCCN)C(=O)N[C@@H](CCCNC(=N)N)C(=O)N[C@H](C(=O)N[C@H](C(=O)N[C@@H](CCC(N)=O)C(=O)N[C@@H](CCCNC(=N)N)C(=O)N[C@H](C(=O)N[C@@H](CCCCN)C(=O)N[C@@H](CC(=O)O)C(=O)N[C@@H](Cc1ccccc1)C(=O)N[C@@H](CC(C)C)C(=O)N[C@@H](CCCNC(=N)N)C(=O)N[C@@H](CC(N)=O)C(=O)N[C@@H](CC(C)C)C(=O)N[C@H](C(=O)N1CCC[C@H]1C(=O)N[C@@H](CCCNC(=N)N)C(=O)N[C@H](C(=O)N[C@@H](CCC(=O)O)C(=O)N[C@@H](CO)C(N)=O)[C@@H](C)O)C(C)C)[C@@H](C)CC)C(C)C)[C@@H](C)CC [SEQ ID NO: 1]	–	–	++	more toxic	–
APKAMRRWVQRWIRRWRPLQKKGI-NH2 [SEQ ID NO: 20]	>10	10	–	–	–
APKAMWVQRWIRRWRPLQKKGI-NH2 [SEQ ID NO: 27]	>10	>10	–	–	weakly toxic
APKAMRRWVQRWIRRWRPKVLLHYPSQKF-NH2 [SEQ ID NO: 23]	>10	2.5	–	–	–
RRWVQRWIRRWRPK-NH2 [SEQ ID NO: 8, RRWVQRWIRRWRPK]	>10	10	–	–	–
RRWVQRWIRRWRPKRIVQRIKDFLRNLV-NH2 [SEQ ID NO: 11]	2.5	1.25	–	–	–
APKAMRRWVQRWIRRWRPKVFQVTGSSA-NH2 [SEQ ID NO: 22]	>10	10	–	–	–
RRWVQRWIRRWRPKVLQKKGI-NH2 [SEQ ID NO: 14]	>10	10	–	–	–
APKAMRRWVQRWIRRWRPKVLQKKGI-NH2 [SEQ ID NO: 18]	>10	5	–	–	–
RRWVQRWIRRWRPKVAAARRWV-NH2 [SEQ ID NO: 10]	10	1.25	–	–	–
APKAMRWVQRWIRRWRPKLQKKGI-NH2 [SEQ ID NO: 26]	>10	10	–	–	–
RRWVQRWIRRWRKVAAARRWVQRWIRRWRPKV-NH2 [SEQ ID NO: 13]	1.25	1.25	–	–	–
RRWVQRWIRRWRPKLQKKGI-NH2 [SEQ ID NO: 16]	>10	10	–	–	–
RRWVRRWIRRWRPKV-NH2 [SEQ ID NO: 25, RRWVRRWIRRWRPKV]	>10	5	–	–	–
RRWVQRWIRRWRKWV-NH2 [SEQ ID NO: 7, RRWVQRWIRRWRKWV]	2.5	1.25	–	–	–
RRWVQRWIRRWRPKW-NH2 [SEQ ID NO: 9, RRWVQRWIRRWRPKW]	10	5	–	–	–
RRWVQRWIRRWRPWV-NH2 [SEQ ID NO: 6, RRWVQRWIRRWRPWV]	10	2.5	–	–	–
RFGRFLRKIRRFRPKVTITIQGSARF-NH2 [SEQ ID NO: 2, reference compound]	1.25	1.25	–	–	extremely toxic
APKAMRRWVQRWIRRWRPRV-NH2 [SEQ ID NO: 17]	>10	5	–	–	–
RRWVQRWIRRWRPKVAAARRWVQRWIRRWRPKV-NH2 [SEQ ID NO: 12]	1.25	1.25	–	–	–

— patent US11130781B2, “Antimicrobial peptides and their use” (UNIVERSITEIT UTRECHT HOLDING B.V., priority 2017, dated 2021)
